In US11098032B2, “Pyran dervatives as CYP11A1 (cytochrome P450 monooxygenase 11A1) inhibitors” (ORION CORPORATION, priority 2016, dated 2021):
Where a name gives a salt, the structure may show the parent alone.

Biological target: T1, CYP11A1 (Homo sapiens, UniProt P05108)
T1 construct: human H295R adrenocortical carcinoma cell line was used as source of enzyme; endogenous in cells; host or cells: H295R human adrenocortical carcinoma cells
T1 sequence (P05108 40-521): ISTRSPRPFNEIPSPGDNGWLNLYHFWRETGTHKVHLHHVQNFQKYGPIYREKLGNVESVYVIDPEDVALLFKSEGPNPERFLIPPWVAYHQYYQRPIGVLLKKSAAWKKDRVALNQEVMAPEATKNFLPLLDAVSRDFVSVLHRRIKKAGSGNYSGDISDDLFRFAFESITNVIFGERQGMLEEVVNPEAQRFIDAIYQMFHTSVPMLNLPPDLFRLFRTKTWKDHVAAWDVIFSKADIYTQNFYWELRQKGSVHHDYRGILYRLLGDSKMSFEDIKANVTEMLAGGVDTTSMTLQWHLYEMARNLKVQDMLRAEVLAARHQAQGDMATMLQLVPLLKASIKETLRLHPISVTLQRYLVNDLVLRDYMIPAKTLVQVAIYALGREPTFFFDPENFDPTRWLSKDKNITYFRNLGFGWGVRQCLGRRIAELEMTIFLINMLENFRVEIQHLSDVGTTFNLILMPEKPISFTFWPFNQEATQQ
Test: CYP11A1 inhibition: modified isocaproic acid release assay (IARA) in H295R cells
Format: cell-based
Details: human H295R adrenocortical carcinoma cells treated three days, 3 nM [24,25-3H]-labelled cholesterol, 1% DMSO, 10 concentrations in duplicates; read-out: IC50 of the test compounds on CYP11A1 inhibition
Procedure: The ability of the test compounds to inhibit conversion of cholesterole to pregnenolone and isocaproic acid was measured by modification of isocaproic acid release assay (IARA) described by Ruangwises et. al. (Biology of Reproduction 1991; 45(1):143-50) except that human H295R adrenocortical carcinoma cell line was used as source of enzyme and extraction was done with dextran-coated charcoal suspension (Isomaa, V. et al., Endocrinology 1982; 111(3):833-843). […] To determine the half maximal inhibitory concentration (IC50) of the test compounds on CYP11A1 inhibition, the cells were treated for three days with increasing concentrations of the test compounds in the presence of 3 nM [24,25-3H]-labelled cholesterol (American Radiolabelled Chemicals). The final DMSO concentration was 1%. Cell culture medium was extracted with dextran-coated charcoal suspension and the radiolabelled isocaproic acid was determined by mixing 100 μl of supernatant fraction in 200 μl of scintillation fluid (OptiPhase SuperMix, Perkin Elmer). Radioactivity was measured using a Microbeta scintillation counter (1450 MicroBeta Trilux, Wallac). All the test compounds were studied at 10 concentrations in duplicates.

| IC50 [nM] | Compound |
| --- | --- |
| 150 to 300 | CS(=O)(=O)N[C@@H]1CC[C@H](COc2coc(CN3Cc4ccccc4C3)cc2=O)C1 (relative stereo) [Compound 276, Cis-N-(3-(((6-(Isoindolin-2-ylmethyl)-4-oxo-4H-pyran-3-yl)oxy)methyl)-cyclo-pentyl)-methanesulfonamide] |
| 150 to 300 | CS(=O)(=O)c1ccc(COc2coc(CN3Cc4ccccc4C3)cc2=O)cc1 [Compound 1, 2-(Isoindolin-2-ylmethyl)-5-((4-(methylsulfonyl)benzyl)oxy)-4H-pyran-4-one] |
| 301 to 2000 | O=c1cc(CN2Cc3ccccc3C2)occ1OCc1ccc(SC(F)(F)F)cc1 [Compound 3, 2-(Isoindolin-2-ylmethyl)-5-((4-((trifluoromethyl)thio)benzyl)oxy)-4H-pyran-4-one] |
| < 150 | O=c1cc(CN2Cc3ccccc3C2)occ1OCc1ccc(S(=O)(=O)N2CCCC2)cc1 [Compound 5, 2-(Isoindolin-2-ylmethyl)-5-((4-(pyrrolidin-1-ylsulfonyl)benzyl)oxy)-4H-pyran-4-one] |
| < 150 | CNS(=O)(=O)c1ccc(COc2coc(CN3Cc4ccccc4C3)cc2=O)cc1 [Compound 8, 4-(((6-(Isoindolin-2-ylmethyl)-4-oxo-4H-pyran-3-yl)oxy)methyl)-N-methylbenzenesulfonamide] |
| 150 to 300 | O=c1cc(CN2Cc3ccccc3C2)occ1OCc1ccc(S(=O)(=O)N2CCC2)cc1 [Compound 9, 5-((4-(Azetidin-1-ylsulfonyl)benzyl)oxy)-2-(isoindolin-2-ylmethyl)-4H-pyran-4-one] |
| < 150 | CN(CCO)S(=O)(=O)c1ccc(COc2coc(CN3Cc4ccccc4C3)cc2=O)cc1 [Compound 12, N-(2-Hydroxyethyl)-4-(((6-(isoindolin-2-ylmethyl)-4-oxo-4H-pyran-3-yl)-oxy)methyl)-N-methylbenzenesulfonamide] |
| 301 to 2000 | CS(=O)(=O)c1ccc(COc2coc(CN3CCc4ccccc4C3)cc2=O)cc1 [Compound 14, 2-((3,4-Dihydroisoquinolin-2(1H)-yl)methyl)-5-((4-(methylsulfonyl)benzyl)oxy)-4H-pyran-4-one] |
| < 150 | O=c1cc(CN2Cc3ccccc3C2)occ1OCc1ccc(S(=O)(=O)NCCO)cc1 [Compound 15, N-(2-Hydroxyethyl)-4-(((6-(isoindolin-2-ylmethyl)-4-oxo-4H-pyran-3-yl)-oxy)methyl)benzenesulfonamide] |
| 301 to 2000 | CS(=O)(=O)c1ccc(COc2coc(CN3CCc4ccccc4C3)cc2=O)c(Cl)c1 [Compound 18, 5-((2-Chloro-4-(methylsulfonyl)benzyl)oxy)-2-((3,4-dihydroisoquinolin-2(1H)-yl)methyl)-4H-pyran-4-one] |
| < 150 | CN(CCC#N)S(=O)(=O)c1ccc(COc2coc(CN3Cc4ccccc4C3)cc2=O)cc1 [Compound 23, N-(2-Cyanoethyl)-4-(((6-(isoindolin-2-ylmethyl)-4-oxo-4H-pyran-3-yl)oxy)-methyl)-N-methylbenzenesulfonamide] |
| 150 to 300 | CS(=O)(=O)c1ccc(COc2coc(CN3Cc4cc(F)c(F)cc4C3)cc2=O)cc1 [Compound 26, 2-((5,6-Difluoroisoindolin-2-yl)methyl)-5-((4-(methylsulfonyl)benzyl)oxy)-4H-pyran-4-one] |
| 301 to 2000 | CS(=O)(=O)c1ccc(COc2coc(CN3Cc4cccc(F)c4C3)cc2=O)cc1 [Compound 27, 2-((4-Fluoroisoindolin-2-yl)methyl)-5-((4-(methylsulfonyl)benzyl)oxy)-4H-pyran-4-one] |

More lines, now with the values behind:

| Compound | IC50 [nM] |
| --- | --- |
| O=c1cc(CN2Cc3ccccc3C2)occ1OC[C@H]1C=C[C@@H](NS(=O)(=O)C2CC2)C1 (relative stereo) [Compound 274, Cis-N-(4-(((6-(isoindolin-2-ylmethyl)-4-oxo-4H-pyran-3-yl)oxy)methyl)cyclo-pent-2-en-1-yl)cyclopropanesulfonamide, Formate] | 301 to 2000 |
| CC(C)CC(=O)N[C@@H]1C=C[C@H](COc2coc(CN3Cc4ccccc4C3)cc2=O)C1 (relative stereo) [Compound 275, Cis-N-(4-(((6-(isoindolin-2-ylmethyl)-4-oxo-4H-pyran-3-yl)oxy)methyl)cyclo-pent-2-en-1-yl)-3-methylbutanamide, Formate] | 301 to 2000 |
| COC(=O)/C=C/c1ccc(COc2coc(CN3Cc4ccccc4C3)cc2=O)cc1 [Compound 2, Methyl (E)-3-(4-(((6-(isoindolin-2-ylmethyl)-4-oxo-4H-pyran-3-yl)oxy)-methyl)phenyl)acrylate] | < 150 |
| CCN(CC)S(=O)(=O)c1ccc(COc2coc(CN3Cc4ccccc4C3)cc2=O)cc1 [Compound 4, N,N-Diethyl-4-(((6-(isoindolin-2-ylmethyl)-4-oxo-4H-pyran-3-yl)oxy)methyl)-benzenesulfonamide] | 150 to 300 |
| O=c1cc(CN2Cc3ccccc3C2)occ1OCc1ccc(S(=O)(=O)N2CCOCC2)cc1 [Compound 6, 2-(Isoindolin-2-ylmethyl)-5-((4-(morpholinosulfonyl)benzyl)oxy)-4H-pyran-4-one] | 150 to 300 |
| O=c1cc(CN2Cc3ccccc3C2)occ1OCc1ccc(S(=O)(=O)N2CCCCC2)cc1 [Compound 7, 2-(Isoindolin-2-ylmethyl)-5-((4-(piperidin-1-ylsulfonyl)benzyl)oxy)-4H-pyran-4-one] | 150 to 300 |
| CN(C)S(=O)(=O)c1ccc(COc2coc(CN3Cc4ccccc4C3)cc2=O)cc1 [Compound 10, 4-(((6-(Isoindolin-2-ylmethyl)-4-oxo-4H-pyran-3-yl)oxy)methyl)-N,N-di-methylbenzenesulfonamide] | < 150 |
| COCCNS(=O)(=O)c1ccc(COc2coc(CN3Cc4ccccc4C3)cc2=O)cc1 [Compound 11, 4-(((6-(Isoindolin-2-ylmethyl)-4-oxo-4H-pyran-3-yl)oxy)methyl)-N-(2-methoxyethyl)benzenesulfonamide] | < 150 |
| NS(=O)(=O)c1ccc(COc2coc(CN3Cc4ccccc4C3)cc2=O)cc1 [Compound 13, 4-(((6-(Isoindolin-2-ylmethyl)-4-oxo-4H-pyran-3-yl)oxy)methyl)benzenesulfonamide] | 301 to 2000 |
| CS(=O)(=O)c1ccc(COc2coc(CN3Cc4ccccc4C3)cc2=O)c(Cl)c1 [Compound 16, 5-((2-Chloro-4-(methylsulfonyl)benzyl)oxy)-2-(isoindolin-2-ylmethyl)-4H-pyran-4-one] | 301 to 2000 |
| CS(=O)(=O)c1ccc(COc2coc(CN3Cc4ccccc4C3)cc2=O)cc1F [Compound 17, 5-((3-Fluoro-4-(methylsulfonyl)benzyl)oxy)-2-(isoindolin-2-ylmethyl)-4H-pyran-4-one] | 301 to 2000 |
| CS(=O)(=O)c1ccc(COc2coc(CN3Cc4ccccc4C3)cc2=O)c(C(F)(F)F)c1 [Compound 19, 2-(Isoindolin-2-ylmethyl)-5-((4-(methylsulfonyl)-2-(trifluoromethyl)benzyl)oxy)-4H-pyran-4-one] | 301 to 2000 |
| COCCN(C)S(=O)(=O)c1ccc(COc2coc(CN3Cc4ccccc4C3)cc2=O)cc1 [Compound 20, 4-(((6-(Isoindolin-2-ylmethyl)-4-oxo-4H-pyran-3-yl)oxy)methyl)-N-(2-methoxyethyl)-N-methylbenzenesulfonamide] | 150 to 300 |
| CCN(CCO)S(=O)(=O)c1ccc(COc2coc(CN3Cc4ccccc4C3)cc2=O)cc1 [Compound 21, N-Ethyl-N-(2-hydroxyethyl)-4-(((6-(isoindolin-2-ylmethyl)-4-oxo-4H-pyran-3-yl)oxy)methyl)benzenesulfonamide] | < 150 |
| O=c1cc(CN2Cc3ccccc3C2)occ1OCc1ccc(S(=O)(=O)C(F)F)cc1 [Compound 22, 5-((4-((Difluoromethyl)sulfonyl)benzyl)oxy)-2-(isoindolin-2-ylmethyl)-4H-pyran-4-one] | < 150 |
| CCS(=O)(=O)c1ccc(COc2coc(CN3Cc4ccccc4C3)cc2=O)cc1 [Compound 24, 5-((4-(Ethylsulfonyl)benzyl)oxy)-2-(isoindolin-2-ylmethyl)-4H-pyran-4-one] | 150 to 300 |
| CC(C)S(=O)(=O)c1ccc(COc2coc(CN3Cc4ccccc4C3)cc2=O)cc1 [Compound 25, 2-(Isoindolin-2-ylmethyl)-5-((4-(isopropylsulfonyl)benzyl)oxy)-4H-pyran-4-one] | 150 to 300 |
| COCCS(=O)(=O)c1ccc(COc2coc(CN3Cc4ccccc4C3)cc2=O)cc1 [Compound 28, 2-(Isoindolin-2-ylmethyl)-5-((4-((2-methoxyethyl)sulfonyl)benzyl)oxy)-4H-pyran-4-one] | 150 to 300 |
| COCCS(=O)(=O)c1ccc(COc2coc(CN3Cc4ccc(F)cc4C3)cc2=O)cc1 [Compound 29, 2-((5-Fluoroisoindolin-2-yl)methyl)-5-((4-((2-methoxyethyl)sulfonyl)benzyl)oxy)-4H-pyran-4-one] | 150 to 300 |
